Assay results taken from patent US10946093B2, “Methods of treating cancer using PD-1 axis binding antagonists and MEK inhibitors” (Genentech, Inc., priority 2014, dated 2021).

Test system: Vemurafenib-progressing melanoma tumors
Test: Melanoma GEM model B-raf V600E; PTEN fl/fl; TyCreER, Vemurafenib-progressing tumors
Format: in vivo, mouse
Conditions: 2nd line after first line Vemurafenib; GDC-0973 7.5 mg/kg PO qd; anti-PDL1 10 mg/kg IP three times weekly
Source text: A melanoma GEM model B-raf^V600E; PTEN^fl/fl; TyCreER was used.
Animals were enrolled into the study once their tumors reached a size greater than or equal to 400 mm^3.
Prior to beginning treatment, each mouse received a biopsy of a melanoma tumor. After the biopsy, mice were allowed to recover for up to one week prior to receiving treatment. Mice were assigned into initial treatment groups (n=20), and treatment commenced at day 0.
When animals in any group reached ˜2000 mm^3, the tumors were biopsied a second time. After the biopsy procedure, mice recovered for up to one week prior to receiving further therapeutic treatment.
Mice were weighed and tumors measured at least once a week until study termination. Mice received treatment each day until a mean tumor volume of 2500 mm^3 was achieved. Mice were then euthanized, and melanoma tumors were collected for histology and assessing molecular changes. Mice were perfused under anesthesia at euthanasia.
Throughout the study, mice were monitored for clinical appearance (body condition, coat appearance, posture, labored breathing, etc.) at least 2 times a week, with increasing frequency, up to daily, depending on severity of adverse clinical signs observed. Moribund animals were euthanized. Mice with a body condition score <2 were euthanized.

O=C(c1ccc(F)c(F)c1Nc1ccc(I)cc1F)N1CC(O)([C@@H]2CCCCN2)C1 [Cobimetinib, Methanone, [3,4-difluoro-2-[(2-fluoro-4-iodophenyl)amino]phenyl][3-hydroxy-3-(2S)-2-piperidinyl-1-azetidinyl]-]
effect on tumor growth (percent tumor volume change over time, FIG. 1): initial tumor regression, but this response was not sustained and tumor re-growth was observed
